In article PMC8199067, “Urolithin and Reduced Urolithin Derivatives as Potent Inhibitors of Tyrosinase and Melanogenesis: Importance of the 4-Substituted Resorcinol Moiety” (International Journal of Molecular Sciences, 2021):

Assays:
B16F10 melanoma cells [1] = tested on: B16F10 melanoma cells; set-up: method as in PMID 28726389; details: B16F10 melanoma cells ref 70; cited from earlier work
B16F10 melanoma cells [2] = tested on: B16F10 melanoma cells; set-up: method as in Su and co-workers; details: at the same concentration (20 µM) ref Su and co-workers; cited from earlier work
mushroom tyrosinase = mushroom tyrosinase (Agaricus bisporus, UniProt C7FF04); test: Mushroom tyrosinase inhibitory assay (L-tyrosine substrate); type: biochemical; details: 50 μM, L-tyrosine as substrate, mean ± SEM, NI means no inhibition
Experimental: The experiment was repeated three times. Mushroom tyrosinase inhibitions % were calculated using:% Inhibition = [1 − (A/B)] × 100(1) where A is the absorbance of the test compound and B is the absorbance of the blank.
Log-linear curves were plotted, and their equations were determined.

Sequence of mushroom tyrosinase (C7FF04 1-392 limits assumed): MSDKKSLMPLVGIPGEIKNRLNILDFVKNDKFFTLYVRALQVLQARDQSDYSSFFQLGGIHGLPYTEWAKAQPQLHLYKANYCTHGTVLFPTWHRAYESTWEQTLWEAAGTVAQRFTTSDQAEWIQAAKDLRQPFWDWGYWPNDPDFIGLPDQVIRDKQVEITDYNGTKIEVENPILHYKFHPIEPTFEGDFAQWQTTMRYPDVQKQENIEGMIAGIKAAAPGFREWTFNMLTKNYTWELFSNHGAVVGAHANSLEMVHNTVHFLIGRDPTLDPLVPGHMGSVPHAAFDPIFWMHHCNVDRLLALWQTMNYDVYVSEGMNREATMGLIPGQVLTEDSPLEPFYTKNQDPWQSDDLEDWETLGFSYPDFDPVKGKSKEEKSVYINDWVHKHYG

inhibition at 50 µM (mushroom tyrosinase) [%] | Tyrosinase Inhibition (%) (mushroom tyrosinase; listed as urolithin B) | Tyrosinase Inhibition (%) (mushroom tyrosinase; listed as urolitin B) | Tyrosinase Inhibition (%) (mushroom tyrosinase; listed as urolithin A) | SMILES | Antimelanogenic effect (B16F10 melanoma cells [1]) | Cytotoxicity compared with 1c and 1h (B16F10 melanoma cells [2])
< 0 | did not inhibit tyrosinase | did not show inhibitory activity |  | O=c1oc2cc(O)ccc2c2ccccc12 [Compound 1a, 3-Hydroxy-6H-benzo[c]chromen-6-one] | antimelanogenic effects through tyrosinase inhibition | higher cytotoxicity
< 0 |  |  | did not show inhibitory activity | O=c1oc2cc(O)ccc2c2ccc(O)cc12 [Compound 1e, 3,8-Dihydroxy-6H-benzo[c]chromen-6-one] | antimelanogenic effects through tyrosinase inhibition | higher cytotoxicity
